# Data: article PMC11012124, “Synthesis of Novel Triazine-Based Chalcones and 8,9-dihydro-7H-pyrimido[4,5-b][1,4]diazepines as Potential Leads in the Search of Anticancer, Antibacterial and Antifungal Agents” (International Journal of Molecular Sciences, 2024)
# Columns and labels:
# 60 cancer cell lines = assay: NCI-60 one-dose screen (10 μM); assay type: cell-based; conditions: Homo sapiens; one dose of 10 μM, mean over 60 cancer cell lines; read-out: Mean Growth Percent (MGP)
# From the text: Additionally, the mean of the growth percentages (MGP) of each compound against all the 60 cancer cell lines is also reported, which is used as one of the selection criteria to continue with tests at five concentration doses.
# [1] = tested on: Microsporum gypseum (CCC 115); assay: Antifungal broth microdilution (CLSI); assay type: cell-based; conditions: Nannizzia gypsea; Mg: Microsporum gypseum
# Protocol: Several of the obtained triazine derivatives were evaluated against sensitive fungal species comprising of two yeasts (Candida albicans (ATCC 10231), Cryptococcus neoformans (ATCC 32264)), three dermatophytes (Microsporum gypseum (CCC 115), Trichophyton rubrum (CCC 134-2000), Trichophyton mentagrophytes (CCC 202-2000)), and three Aspergillus fungi ((A. [NT] 26934), A. niger (ATCC 9029), and A. flavus (ATCC 9170)). […] Broth microdilution techniques were performed in 96-well microplates according to the Reference Method for Broth Dilution Antifungal Susceptibility Testing of Yeasts, document M27-A3 [86] and of Filamentous Fungi […]-A8 [87]. […] An inoculum suspension (100 μL) was added to each well (final well volume = 200 μL). One growth control well (containing medium, inoculum, and the same amount of DMSO as used for each compound) and one sterility control well (sample, medium, and sterile water instead of inoculum) were included for each fungus tested. Microtiter plates were incubated in a dark, humid chamber at 30 °C for the time necessary for each fungus. Amphotericin B, Terbinafine, Fluconazole and Itraconazole were used as a positive control. The tests were performed in triplicate.
# MOLT-4 = assay: cells; conditions: Homo sapiens, MOLT-4, 48 h; for CC50: read-out: LC50
# RPMI-8226 = assay: cells; conditions: Homo sapiens, RPMI-8226, 48 h; for CC50: read-out: LC50
# SR = assay: cells; conditions: Homo sapiens, 48 h
# A549/ATCC = assay: cells; conditions: Homo sapiens, A549, 48 h; for CC50: read-out: LC50
# HOP-92 = assay: cells; conditions: Homo sapiens, HOP-92, 48 h; for CC50: read-out: LC50
# NCI-H226 = assay: cells; conditions: Homo sapiens, NCI-H226, 48 h; for CC50: read-out: LC50
# NCI-H23 = assay: cells; conditions: Homo sapiens, NCI-H23, 48 h; for CC50: read-out: LC50
# NCI-H522 = assay: cells; conditions: Homo sapiens, NCI-H522, 48 h; for CC50: read-out: LC50
# HCT-116 = assay: cells; conditions: Homo sapiens, HCT-116, 48 h; for CC50: read-out: LC50
# SW-620 = assay: cells; conditions: Homo sapiens, SW-620, 48 h; for CC50: read-out: LC50
# SNB-19 = assay: cells; conditions: Homo sapiens, SNB-19, 48 h; for CC50: read-out: LC50
# U251 = assay: cells; conditions: Homo sapiens, U-251, 48 h; for GI50: U251, 48 h; for CC50: read-out: LC50
# LOX IMVI = assay: cells; conditions: Homo sapiens, 48 h; for CC50: read-out: LC50, LOX IMVI, 48 h
# MDA-MB-435 = assay: cells; conditions: Homo sapiens, MDA-MB-435, 48 h; for CC50: read-out: LC50
# SK-MEL-2 = assay: cells; conditions: Homo sapiens, SK-MEL-2, 48 h; for CC50: read-out: LC50
# IGROV1 = assay: cells; conditions: Homo sapiens, IGROV-1, 48 h; for CC50: read-out: LC50
# ACHN = assay: cells; conditions: Homo sapiens, 48 h; for CC50: read-out: LC50
# PC-3 = assay: cells; conditions: Homo sapiens, PC-3, 48 h; for CC50: read-out: LC50
# DU-145 = assay: cells; conditions: Homo sapiens, DU-145, 48 h; for CC50: read-out: LC50
# MDA-MB-231/ATCC = assay: cells; conditions: Homo sapiens, MDA-MB-231, 48 h; for CC50: read-out: LC50
# BT-549 = assay: cells; conditions: Homo sapiens, BT-549, 48 h; for CC50: read-out: LC50
# T-47D = assay: cells; conditions: Homo sapiens, T47D, 48 h; for CC50: read-out: LC50
# [2] = tested on: N. gonorrhoeae ATCC 49226; assay: MIC on GC agar plates; assay type: cell-based, Neisseria gonorrhoeae; conditions: Neisseria gonorrhoeae, ATCC49226, read-out: MIC
# Procedure, shortened: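 N. gonorrhoeae (1 × 10^4 CFU) was spotted onto IsoVitaleX-supplemented (1%) GC agar containing graded compound levels. The lowest inhibitory concentration was recorded as the MIC, with oxidase testing used to verify growth, and each assay was done in duplicate on at least two separate occasions.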
# [3] = tested on: M. tuberculosis ATCC 27294; assay: Antitubercular broth microdilution MIC; assay type: cell-based; conditions: Mycobacterium tuberculosis; M. tuberculosis ATCC 27294 (H37Rv); read-out: Minimum inhibitory concentration (MIC)
# NCI/ADR-RES = assay: cells; conditions: Homo sapiens, 48 h; for CC50: read-out: LC50
compound,measurement,setting,value
CN(C)c1nc(NCCNS(=O)(=O)c2ccc(C(=O)/C=C/c3ccc(Cl)cc3)cc2)nc(N2CCOCC2)n1 [23e],activity at 10 µM,60 cancer cell lines,6.74%
same,MIC,[1],> 250 µg/mL
same,GI50,MOLT-4,3.38 µM
same,CC50,MOLT-4,> 100 µM
same,GI50,RPMI-8226,2.55 µM
same,CC50,RPMI-8226,> 100 µM
same,GI50,SR,2.52 µM
same,CC50,SR; read-out: LC50,> 100 µM
same,GI50,A549/ATCC,14.4 µM
same,CC50,A549/ATCC,56.4 µM
same,GI50,HOP-92,15.1 µM
same,CC50,HOP-92,67.8 µM
same,GI50,NCI-H226,15.7 µM
same,CC50,NCI-H226,73.8 µM
same,GI50,NCI-H23,15.7 µM
same,CC50,NCI-H23,55.6 µM
same,GI50,NCI-H522,14 µM
same,CC50,NCI-H522,53.3 µM
same,GI50,HCT-116,11.7 µM
same,CC50,HCT-116,50.7 µM
same,GI50,SW-620,8.46 µM
same,CC50,SW-620,50.2 µM
same,GI50,SNB-19,14.2 µM
same,CC50,SNB-19,52.1 µM
same,GI50,U251,8.16 µM
same,CC50,U251,45.9 µM
same,GI50,LOX IMVI,1.71 µM
same,CC50,LOX IMVI,6.13 µM
same,GI50,MDA-MB-435,12.8 µM
same,CC50,MDA-MB-435,55.3 µM
same,GI50,SK-MEL-2,16.5 µM
same,CC50,SK-MEL-2,56 µM
same,GI50,IGROV1,3.08 µM
same,CC50,IGROV1,36.8 µM
same,GI50,ACHN,13.5 µM
same,CC50,ACHN,51.3 µM
same,GI50,PC-3,13 µM
same,CC50,PC-3,67 µM
same,GI50,DU-145,17.2 µM
same,CC50,DU-145,67.3 µM
same,GI50,MDA-MB-231/ATCC,13.3 µM
same,CC50,MDA-MB-231/ATCC,52.7 µM
same,GI50,BT-549,15.3 µM
same,CC50,BT-549,56 µM
same,GI50,T-47D,16.7 µM
same,CC50,T-47D,> 100 µM
Cc1ccc(C2CC(c3ccc(S(=O)(=O)NCCNc4nc(Nc5ccc(F)cc5)nc(N(C)C)n4)cc3)=Nc3c(N)nc(N)nc3N2)cc1 (stereo not drawn) [31b],activity at 10 µM,60 cancer cell lines,48.4%
same,MIC,[2],8 µg/mL
same,MIC,[3],0.6 µg/mL
same,GI50,MOLT-4,2.2 µM
same,CC50,MOLT-4,7.53 µM
same,GI50,RPMI-8226,2.94 µM
same,CC50,RPMI-8226,> 100 µM
same,GI50,A549/ATCC,> 100 µM
same,CC50,A549/ATCC,> 100 µM
same,GI50,HOP-92,2.54 µM
same,CC50,HOP-92,21 µM
same,GI50,NCI-H226,> 100 µM
same,CC50,NCI-H226,> 100 µM
same,GI50,NCI-H23,78.8 µM
same,CC50,NCI-H23,> 100 µM
same,GI50,NCI-H522,21.3 µM
same,CC50,NCI-H522,> 100 µM
same,GI50,HCT-116,3.81 µM
same,CC50,HCT-116,> 100 µM
same,GI50,SW-620,8.04 µM
same,CC50,SW-620,> 100 µM
same,GI50,SNB-19,13.1 µM
same,CC50,SNB-19,> 100 µM
same,GI50,U251,7.08 µM
same,CC50,U251,> 100 µM
same,GI50,LOX IMVI,2.09 µM
same,CC50,LOX IMVI,5.11 µM
same,GI50,MDA-MB-435,8.79 µM
same,CC50,MDA-MB-435,> 100 µM
same,GI50,SK-MEL-2,11.2 µM
same,CC50,SK-MEL-2,77.7 µM
same,GI50,IGROV1,64.4 µM
same,CC50,IGROV1,> 100 µM
same,GI50,NCI/ADR-RES,> 100 µM
same,CC50,NCI/ADR-RES,> 100 µM
same,GI50,ACHN,> 100 µM
same,CC50,ACHN,> 100 µM
same,GI50,PC-3,3.33 µM
same,CC50,PC-3,> 100 µM
same,GI50,DU-145,> 100 µM
same,CC50,DU-145,> 100 µM
same,GI50,MDA-MB-231/ATCC,3.86 µM
same,CC50,MDA-MB-231/ATCC,> 100 µM
same,GI50,BT-549,5.46 µM
same,CC50,BT-549,59.4 µM
same,GI50,T-47D,8.75 µM
same,CC50,T-47D,> 100 µM
CN(C)c1nc(NCCNS(=O)(=O)c2ccc(C3=Nc4c(N)nc(N)nc4NC(c4ccccc4)C3)cc2)nc(Nc2ccc(F)cc2)n1 (stereo not drawn) [31a],activity at 10 µM,60 cancer cell lines,40.4%
same,MIC,[2],8 µg/mL
same,MIC,[3],1.2 µg/mL
same,GI50,MOLT-4,3.11 µM
same,CC50,MOLT-4,> 100 µM
same,GI50,RPMI-8226,3.32 µM
same,CC50,RPMI-8226,> 100 µM
same,GI50,A549/ATCC,> 100 µM
same,CC50,A549/ATCC,> 100 µM
same,GI50,HOP-92,2.18 µM
same,CC50,HOP-92,9.96 µM
same,GI50,NCI-H226,> 100 µM
same,CC50,NCI-H226,> 100 µM
same,GI50,NCI-H23,> 100 µM
same,CC50,NCI-H23,> 100 µM
same,GI50,NCI-H522,77.4 µM
same,CC50,NCI-H522,> 100 µM
same,GI50,HCT-116,7.37 µM
same,CC50,HCT-116,> 100 µM
same,GI50,SW-620,40.4 µM
same,CC50,SW-620,> 100 µM
same,GI50,SNB-19,21.8 µM
same,CC50,SNB-19,> 100 µM
same,GI50,U251,18.4 µM
same,CC50,U251,> 100 µM
same,GI50,LOX IMVI,9.96 µM
same,CC50,LOX IMVI,25.7 µM
same,GI50,MDA-MB-435,15 µM
same,CC50,MDA-MB-435,> 100 µM
same,GI50,SK-MEL-2,28.5 µM
same,CC50,SK-MEL-2,> 100 µM
same,GI50,IGROV1,5.76 µM
same,CC50,IGROV1,> 100 µM
same,GI50,NCI/ADR-RES,> 100 µM
same,CC50,NCI/ADR-RES,> 100 µM
same,GI50,ACHN,> 100 µM
same,CC50,ACHN,> 100 µM
same,GI50,PC-3,3.84 µM
same,CC50,PC-3,> 100 µM
same,GI50,DU-145,> 100 µM
same,CC50,DU-145,> 100 µM
same,GI50,MDA-MB-231/ATCC,6.16 µM
same,CC50,MDA-MB-231/ATCC,67.6 µM
same,GI50,BT-549,8.82 µM
same,CC50,BT-549,> 100 µM
same,GI50,T-47D,5.12 µM
same,CC50,T-47D,> 100 µM
CN(C)c1nc(NCCNS(=O)(=O)c2ccc(C3=Nc4c(N)nc(N)nc4NC(c4ccc(Cl)cc4)C3)cc2)nc(Nc2ccc(F)cc2)n1 (stereo not drawn) [31e],activity at 10 µM,60 cancer cell lines,30.8%
same,MIC,[2],0.5 µg/mL
same,MIC,[3],1.2 µg/mL
same,GI50,MOLT-4,2.68 µM
same,GI50,RPMI-8226,3.19 µM
same,CC50,RPMI-8226,> 100 µM
same,GI50,A549/ATCC,> 100 µM
same,CC50,A549/ATCC,> 100 µM
same,GI50,HOP-92,2.53 µM
same,CC50,HOP-92,13.2 µM
same,GI50,NCI-H226,> 100 µM
same,CC50,NCI-H226,> 100 µM
same,GI50,NCI-H23,72.7 µM
same,CC50,NCI-H23,> 100 µM
same,GI50,NCI-H522,16 µM
same,CC50,NCI-H522,> 100 µM
same,GI50,HCT-116,3.77 µM
same,CC50,HCT-116,> 100 µM
same,GI50,SW-620,5.95 µM
same,CC50,SW-620,> 100 µM
same,GI50,SNB-19,5.67 µM
same,CC50,SNB-19,> 100 µM
same,GI50,U251,5.14 µM
same,CC50,U251,> 100 µM
same,GI50,LOX IMVI,1.77 µM
same,CC50,LOX IMVI,3.55 µM
same,GI50,MDA-MB-435,5.17 µM
same,CC50,MDA-MB-435,> 100 µM
same,GI50,SK-MEL-2,3.34 µM
same,CC50,SK-MEL-2,14 µM
same,GI50,IGROV1,9.96 µM
same,CC50,IGROV1,> 100 µM
same,GI50,NCI/ADR-RES,> 100 µM
same,CC50,NCI/ADR-RES,> 100 µM
same,GI50,ACHN,> 100 µM
same,CC50,ACHN,> 100 µM
same,GI50,PC-3,3.44 µM
same,CC50,PC-3,> 100 µM
same,GI50,DU-145,> 100 µM
same,CC50,DU-145,> 100 µM
same,GI50,MDA-MB-231/ATCC,3.73 µM
same,CC50,MDA-MB-231/ATCC,65.7 µM
same,GI50,BT-549,3.96 µM
same,CC50,BT-549,28.7 µM
same,GI50,T-47D,7.93 µM
same,CC50,T-47D,> 100 µM
